# Test results published in article PMC6894882 (PLoS Neglected Tropical Diseases, 2019).
# Marks after values point to notes of the source that are not given here.
# Assays:
# Plasmodium falciparum = conditions: read-out: in vitro EC50; cited from earlier work
# West Nile virus = experiment: microbe, parasite or virus in culture; format: cell-based; set-up: SI50: unit not given beside the values
# Hepatitis C virus = experiment: microbe, parasite or virus in culture; format: cell-based; set-up: SI50 / SI90: unit not given beside the values
# [1] = test system: Norovirus (human norovirus, GT1 strain); experiment: microbe, parasite or virus in culture; format: cell-based; set-up: SI90: unit not given beside the values
# CYP2C19 = CYP2C19 (Homo sapiens, UniProt P33261); experiment: biochemical
# in vitro [2] = conditions: mouse
# [3] = test system: Venezuelian equine encephalitis virus; experiment: organism not typed; format: cell-based; set-up: SI50: unit not given beside the values
# [4] = pH 7.4
# [5] = mouse, in vivo; cited from earlier work
# in vitro [6] = conditions: non-human primate, microsomes
# Poliovirus 3 = experiment: microbe, parasite or virus in culture; format: cell-based; set-up: SI50: unit not given beside the values
# Chikungunya virus = experiment: microbe, parasite or virus in culture; format: cell-based; set-up: SI50: unit not given beside the values
# Dengue Virus 2 = experiment: microbe, parasite or virus in culture; format: cell-based; set-up: SI50: unit not given beside the values
# in vitro [7] = conditions: mouse, plasma, pH 7.4
# HeLa cells = conditions: cited from earlier work
# Murine norovirus = experiment: microbe, parasite or virus in culture; format: cell-based; set-up: SI50 / SI90: unit not given beside the values
# in vitro [8] = conditions: mouse, microsomes
# EBOV in HeLa cells = format: cell-based, Ebola virus
# physchem = conditions: 20 °C, pH 7.4, aqueous buffer, kinetic from dmso stock
# CYP2D6 = CYP2D6 (Homo sapiens, UniProt P10635); experiment: biochemical
# Rift Valley fever virus = experiment: microbe, parasite or virus in culture; format: cell-based; set-up: SI50: unit not given beside the values
# [9] = mouse, in vivo
# in vitro [10] = conditions: human, plasma, pH 7.4
# CYP2C9 = CYP2C9 (Homo sapiens, UniProt P11712); experiment: biochemical
# in vitro [11] = conditions: African green monkey
# [12] = in vivo, cited from earlier work
# in vitro [13] = conditions: dog
# Yellow Fever virus = experiment: microbe, parasite or virus in culture; format: cell-based; set-up: SI50: unit not given beside the values
# in vitro [14] = conditions: human, microsomes
# in vitro [15] = conditions: human, Caco-2, pH 7.4
# Zika virus = experiment: microbe, parasite or virus in culture; format: cell-based; set-up: SI50: unit not given beside the values
# CYP1A2 = CYP1A2 (Homo sapiens, UniProt P05177); experiment: biochemical
# in vitro [16] = conditions: African green monkey; remark: listed apart in the source
# [17] = test system: Ebola virus (Zaire strain); experiment: microbe, parasite or virus in culture; format: cell-based; set-up: SI50: unit not given beside the values
# Human cytomegalovirus = experiment: microbe, parasite or virus in culture; format: cell-based; set-up: SI50 / SI90: unit not given beside the values
# MERS coronavirus = experiment: microbe, parasite or virus in culture; format: cell-based; set-up: SI50: unit not given beside the values
# cytokines and chemokines = test system: cytokines and chemokines; set-up: species or system mice; conditions: mouse, in vivo
# Tacaribe virus = experiment: microbe, parasite or virus in culture; format: cell-based; set-up: SI50: unit not given beside the values
# Influenza A virus H1N1 = experiment: microbe, parasite or virus in culture; format: cell-based; set-up: SI50: unit not given beside the values
# Sequence of CYP2D6 (P10635 whole entry): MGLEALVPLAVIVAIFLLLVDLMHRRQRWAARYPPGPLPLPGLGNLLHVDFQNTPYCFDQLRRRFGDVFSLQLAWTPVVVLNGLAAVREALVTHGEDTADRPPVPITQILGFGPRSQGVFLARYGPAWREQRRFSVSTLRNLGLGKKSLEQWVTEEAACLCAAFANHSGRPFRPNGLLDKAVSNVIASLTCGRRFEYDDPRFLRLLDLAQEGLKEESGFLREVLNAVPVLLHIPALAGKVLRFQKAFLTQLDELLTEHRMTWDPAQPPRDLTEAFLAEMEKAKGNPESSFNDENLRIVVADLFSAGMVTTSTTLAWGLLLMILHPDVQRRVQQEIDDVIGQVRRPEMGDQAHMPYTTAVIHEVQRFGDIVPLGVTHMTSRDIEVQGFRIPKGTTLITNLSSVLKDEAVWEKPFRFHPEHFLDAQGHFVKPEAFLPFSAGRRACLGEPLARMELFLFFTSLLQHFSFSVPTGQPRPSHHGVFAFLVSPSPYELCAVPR
# Sequence of CYP2C9 (P11712 whole entry): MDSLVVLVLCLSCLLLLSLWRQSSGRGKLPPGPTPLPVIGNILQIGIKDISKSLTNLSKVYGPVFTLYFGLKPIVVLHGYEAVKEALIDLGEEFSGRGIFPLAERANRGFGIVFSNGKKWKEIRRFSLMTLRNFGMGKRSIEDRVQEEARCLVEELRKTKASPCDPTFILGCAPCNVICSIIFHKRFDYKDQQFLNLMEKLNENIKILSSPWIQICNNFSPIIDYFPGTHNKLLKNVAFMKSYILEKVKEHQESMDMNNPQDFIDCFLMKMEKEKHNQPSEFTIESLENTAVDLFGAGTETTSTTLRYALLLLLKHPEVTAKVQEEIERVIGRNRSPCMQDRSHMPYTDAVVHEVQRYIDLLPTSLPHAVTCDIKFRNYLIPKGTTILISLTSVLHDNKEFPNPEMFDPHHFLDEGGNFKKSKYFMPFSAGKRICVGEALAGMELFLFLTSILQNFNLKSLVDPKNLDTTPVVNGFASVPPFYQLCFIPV
# Sequence of CYP2C19 (P33261 whole entry): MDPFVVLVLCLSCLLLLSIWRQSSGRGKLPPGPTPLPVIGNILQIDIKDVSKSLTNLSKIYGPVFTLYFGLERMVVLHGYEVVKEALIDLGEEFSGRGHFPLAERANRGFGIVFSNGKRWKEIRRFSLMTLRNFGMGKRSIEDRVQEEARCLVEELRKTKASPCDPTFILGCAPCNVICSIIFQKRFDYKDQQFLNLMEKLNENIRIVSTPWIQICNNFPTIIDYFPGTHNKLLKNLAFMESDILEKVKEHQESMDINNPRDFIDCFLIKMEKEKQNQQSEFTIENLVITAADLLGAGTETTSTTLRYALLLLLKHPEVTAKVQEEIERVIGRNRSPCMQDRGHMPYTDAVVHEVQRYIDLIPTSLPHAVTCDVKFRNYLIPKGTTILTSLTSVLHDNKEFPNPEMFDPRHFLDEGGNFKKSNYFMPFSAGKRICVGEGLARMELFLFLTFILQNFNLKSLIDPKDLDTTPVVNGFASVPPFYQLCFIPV
# Sequence of CYP1A2 (P05177 whole entry): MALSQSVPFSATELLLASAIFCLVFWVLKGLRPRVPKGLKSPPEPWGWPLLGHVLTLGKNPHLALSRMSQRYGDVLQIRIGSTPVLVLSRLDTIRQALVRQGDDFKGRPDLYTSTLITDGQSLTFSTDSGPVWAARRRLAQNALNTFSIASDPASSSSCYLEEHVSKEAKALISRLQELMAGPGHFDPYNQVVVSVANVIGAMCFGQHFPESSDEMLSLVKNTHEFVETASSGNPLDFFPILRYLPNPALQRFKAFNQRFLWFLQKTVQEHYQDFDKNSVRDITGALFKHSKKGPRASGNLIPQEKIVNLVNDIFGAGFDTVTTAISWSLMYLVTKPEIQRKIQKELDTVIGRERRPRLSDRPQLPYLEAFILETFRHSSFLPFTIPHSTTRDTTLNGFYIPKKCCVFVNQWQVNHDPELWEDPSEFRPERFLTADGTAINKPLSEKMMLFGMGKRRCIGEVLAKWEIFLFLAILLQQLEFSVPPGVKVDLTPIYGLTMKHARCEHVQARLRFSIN
smiles,measurement,setting,value
"COc1ccc2nc3cc(Cl)ccc3c(Nc3cc(CN4CCCC4)c(O)c(CN4CCCC4)c3)c2n1 [Pyronaridine, 4-[(7-Chloro-2-methoxybenzo[b][1, 5]naphthyridin-10-yl)amino]-2,6-bis(1-pyrrolidinylmethyl)phenol phosphate (1:4)]",EC50,Plasmodium falciparum,0.0135 µM
same,SI50,West Nile virus,0
same,EC50,"West Nile virus; West Nile virus, Vero 76",> 24 µM
same,SI50,Hepatitis C virus,1
same,SI90,Hepatitis C virus,<1
same,EC50,"Hepatitis C virus; Hepatitis C virus, Huh-7",0.78 µM
same,EC90,"Hepatitis C virus; Hepatitis C virus, Huh-7",1.71 µM
same,SI90,[1],10
same,EC50,"[1]; Norovirus, GT1, HG23",3.5 µM
same,EC90,"[1]; Norovirus, GT1, HG23",9.7 µM
same,IC50,CYP2C19,> 50 µM
same,CC50,in vitro [2],> 40 µM
same,SI50,[3],1.8
same,EC50,[3]; Vero 76,1.8 µM
same,abundance relative to parent drug (Mouse),[4],100%*
same,LD50,[5],1342 mg/kg
same,half-life,in vitro [6],2.33 h
same,microsomal CLint,in vitro [6],4.9 µL/min/mg
same,SI50,Poliovirus 3,1
same,EC50,"Poliovirus 3; Enterovirus C, Vero 76",3.2 µM
same,SI50,Chikungunya virus,1
same,EC50,"Chikungunya virus; Chikungunya virus, Vero 76",3.2 µM
same,SI50,Dengue Virus 2,1
same,EC50,"Dengue Virus 2; Dengue virus, Vero 76",3.2 µM
same,fraction unbound,in vitro [7],0.035
same,CC50,HeLa cells,3.1 µM
same,SI50,Murine norovirus,1
same,SI90,Murine norovirus,1
same,EC50,"Murine norovirus; Norwalk virus, RAW267.4",> 40 µM
same,EC90,"Murine norovirus; Norwalk virus, RAW267.4",> 40 µM
same,half-life,in vitro [8],2.88 h
same,microsomal CLint,in vitro [8],4 µL/min/mg
same,SI,EBOV in HeLa cells,~ 3
same,solubility,physchem,168 µM
same,IC50,CYP2D6,2.23 µM
same,SI50,Rift Valley fever virus,1
same,EC50,"Rift Valley fever virus; Rift Valley fever virus, Vero 76",3.2 µM
same,clinical observations in PK study,[9],ruffled fur and eye squinting
same,time of peak plasma levels,[9]; ip,0.25 and 1
same,fraction unbound,in vitro [10],0.049
same,IC50,CYP2C9,> 50 µM
same,CC50,in vitro [11]; CC50,3.2 µM
same,CC50,in vitro [11]; approximate CC50,~3 µM
same,t1/2,"[12]; human, po, 400 mg",241 h
same,volume of distribution,"[12]; human, po, 400 mg",41.2 L/kg
same,half-life elimination in whole blood,[12]; human,approximately 17 d
same,t1/2 in humans,[12]; human,195 to 251 h
same,total radioactive half-life,[12],804 h
same,CC50,in vitro [13],3.2 µM
same,SI50,Yellow Fever virus,1
same,EC50,"Yellow Fever virus; Yellow fever virus, Vero 76",3.2 µM
same,microsomal CLint,in vitro [14],4.1 µL/min/mg
same,Papp A→B,in vitro [15],6.46 ×10⁻⁶ cm/s
same,Papp B→A,in vitro [15],4.8 ×10⁻⁶ cm/s
same,efflux ratio,in vitro [15],0.74
same,SI50,Zika virus,1
same,EC50,"Zika virus; Zika virus, Huh-7",3.2 µM
same,IC50,CYP1A2,> 50 µM
same,CC50,in vitro [16],7.5 µM
same,SI50,[17],0
same,anti-EBOV activity (Zaire strain),[17],lack of antiviral activity
same,EC50,"[17]; Zaire ebolavirus, Vero 76",> 1.3 µM
same,SI50,Human cytomegalovirus,<3
same,SI90,Human cytomegalovirus,<3
same,EC50,"Human cytomegalovirus; Human betaherpesvirus 5, HFF",> 1.2 µM
same,EC90,"Human cytomegalovirus; Human betaherpesvirus 5, HFF",> 1.2 µM
same,SI50,MERS coronavirus,1
same,EC50,"MERS coronavirus; Middle East respiratory syndrome-related coronavirus, Vero 76",3.2 µM
same,IFN-α/β concentrations,cytokines and chemokines,below the level of detection
same,cytokine/chemokine levels over vehicle or naïve controls,cytokines and chemokines,did not elicit a statistically significant increase
same,SI50,Tacaribe virus,0
same,EC50,"Tacaribe virus; Mammarenavirus tacaribeense, Vero",> 3.2 µM
same,SI50,Influenza A virus H1N1,1
same,EC50,"Influenza A virus H1N1; Influenza A virus, H1N1, MDCK",3.2 µM
